“And” between values parts separate entries of the source, which are not always exact repeats. Equal values may be shown once.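 96-well plates; 48 h exposure; 5 concentrations. Endpoints by linear interpolation between flanking doses. Not reached: highest tested concentration assigned. Here, GI50 denotes the concentration required for 50% inhibition of growth. The concentration for full growth arrest is given as TGI.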
Key:
Assay in all cases: NCI-60 cell line screen, 48 h
SF-539 CNS = system: SF-539 CNS
NCI-H522 lung = system: NCI-H522 lung
OVCAR-5 ovarian = system: OVCAR-5 ovarian
COLO 205 colon = system: COLO 205 colon
HCT-15 colon = system: HCT-15 colon
T-47D breast = system: T-47D breast
HS 578T breast = system: HS 578T breast
HCC-2998 colon = system: HCC-2998 colon
MALME-3M melanoma = system: MALME-3M melanoma
A549 NSCLC = system: A549 NSCLC
KM12 colon = system: KM12 colon
SK-MEL-28 melanoma = system: SK-MEL-28 melanoma
NCI-H23 lung = system: NCI-H23 lung
NCI-H460 lung = system: NCI-H460 lung
IGROV1 ovarian = system: IGROV1 ovarian
HL-60(TB) leukemia = system: HL-60(TB) leukemia
ACHN renal = system: ACHN renal
U251 CNS = system: U251 CNS
SNB-75 CNS = system: SNB-75 CNS
NCI-H226 lung = system: NCI-H226 lung
SN12C renal = system: SN12C renal
M14 melanoma = system: M14 melanoma
DU-145 prostate = system: DU-145 prostate
SF-295 CNS = system: SF-295 CNS
NCI/ADR-RES ovarian = system: NCI/ADR-RES ovarian
MDA-MB-231 breast = system: MDA-MB-231 breast
CAKI-1 renal = system: CAKI-1 renal
MDA-MB-435 = system: MDA-MB-435
UO-31 renal = system: UO-31 renal
A498 renal = system: A498 renal
SNB-19 CNS = system: SNB-19 CNS
786-0 renal = system: 786-0 renal
SF-268 CNS = system: SF-268 CNS
UACC-62 melanoma = system: UACC-62 melanoma
UACC-257 melanoma = system: UACC-257 melanoma
HOP-62 NSCLC = system: HOP-62 NSCLC
SR leukemia = system: SR leukemia
SK-MEL-5 melanoma = system: SK-MEL-5 melanoma
EKVX NSCLC = system: EKVX NSCLC
OVCAR-8 ovarian = system: OVCAR-8 ovarian
TK-10 renal = system: TK-10 renal
BT-549 breast = system: BT-549 breast
RPMI-8226 leukemia = system: RPMI-8226 leukemia
CCRF-CEM leukemia = system: CCRF-CEM leukemia
SW-620 colon = system: SW-620 colon
HOP-92 NSCLC = system: HOP-92 NSCLC
OVCAR-4 ovarian = system: OVCAR-4 ovarian
MOLT-4 leukemia = system: MOLT-4 leukemia
LOX IMVI melanoma = system: LOX IMVI melanoma
HT29 colon = system: HT29 colon
SK-OV-3 ovarian = system: SK-OV-3 ovarian
RXF 393 renal = system: RXF 393 renal
PC-3 prostate = system: PC-3 prostate
SK-MEL-2 melanoma = system: SK-MEL-2 melanoma
K-562 leukemia = system: K-562 leukemia
MCF7 breast = system: MCF7 breast
OVCAR-3 ovarian = system: OVCAR-3 ovarian
HCT-116 colon = system: HCT-116 colon

## COc1cc2c(Nc3ccc(Cl)c(Cl)c3F)ncnc2cc1OCC1C[C@@H]2CN(C)C[C@@H]2C1 (stereo not given in full)
SF-539 CNS
  GI50: 1470 nM and 1480 nM and 1580 nM
  TGI: 3000 nM and 3010 nM and 3360 nM
NCI-H522 lung
  GI50: 304 nM and 75.2 nM and 640 nM
  TGI: 2530 nM and 1660 nM and 3100 nM
OVCAR-5 ovarian
  GI50: 247 nM and 532 nM and 646 nM
  TGI: 5350 nM and > 10000 nM and 13600 nM
COLO 205 colon
  GI50: 1810 nM and 1830 nM and 1720 nM
  TGI: 3470 nM and 4320 nM and 3930 nM
HCT-15 colon
  GI50: 1140 nM and 1250 nM and 1130 nM
  TGI: 3700 nM and 5420 nM and 4510 nM
T-47D breast
  GI50: 465 nM and 363 nM and 330 nM
  TGI: 6560 nM and > 10000 nM and 10200 nM
HS 578T breast
  GI50: 1130 nM and 1400 nM and 1540 nM
  TGI: 4670 nM and 5450 nM and 5830 nM
HCC-2998 colon
  GI50: 2370 nM and 1410 nM and 1820 nM
  TGI: 7100 nM and > 5780 nM and 5030 nM
MALME-3M melanoma
  GI50: 1790 nM and 1580 nM
  TGI: 4250 nM and 3540 nM and 3630 nM
A549 NSCLC
  GI50: 1230 nM and 1350 nM and 1280 nM
  TGI: 4050 nM and > 5680 nM and 7930 nM
KM12 colon
  GI50: 2940 nM and 3500 nM and 3850 nM
  TGI: 9030 nM and > 10000 nM and 15700 nM
SK-MEL-28 melanoma
  GI50: 1600 nM and 1570 nM and 1830 nM
  TGI: 3330 nM and 3220 nM and 4150 nM
NCI-H23 lung
  GI50: 1980 nM and 2100 nM
  TGI: 7010 nM and > 6380 nM and 9220 nM
NCI-H460 lung
  GI50: 2660 nM and 2730 nM and 3350 nM
  TGI: 9160 nM and > 10000 nM and 13500 nM
IGROV1 ovarian
  GI50: 112 nM and 28.4 nM and 50.7 nM
  TGI: 1950 nM and 791 nM and 1440 nM
HL-60(TB) leukemia
  GI50: 2310 nM and 1990 nM and 2430 nM
  TGI: 5720 nM and 4730 nM and 5730 nM
ACHN renal
  GI50: 46.8 nM and 51.2 nM and 55.3 nM
  TGI: 3480 nM and > 7360 nM and 5740 nM
U251 CNS
  GI50: 1520 nM and 1800 nM and 2300 nM
  TGI: 3410 nM and 4430 nM and 6600 nM
SNB-75 CNS
  GI50: 406 nM and 430 nM and 822 nM
  TGI: 2030 nM and 5860 nM
NCI-H226 lung
  GI50: 3050 nM and > 4500 nM and 2170 nM
  TGI: 15100 nM and > 10000 nM and 14700 nM
SN12C renal
  GI50: 703 nM and 548 nM and 1050 nM
  TGI: 12600 nM and > 10000 nM and 12200 nM
M14 melanoma
  GI50: 1770 nM and 1670 nM and 1820 nM
  TGI: 3500 nM and 3530 nM and 3770 nM
DU-145 prostate
  GI50: 751 nM and 532 nM and 673 nM
  TGI: 13600 nM and > 10000 nM and 13500 nM
SF-295 CNS
  GI50: 1610 nM and 1540 nM and 1460 nM
  TGI: 3410 nM and 3260 nM and 3310 nM
NCI/ADR-RES ovarian
  GI50: 1730 nM and 1570 nM and 1220 nM
  TGI: 9930 nM and > 9380 nM and 7350 nM
MDA-MB-231 breast
  GI50: 1410 nM and 1120 nM and 1500 nM
  TGI: 4300 nM and 3020 nM and 4880 nM
CAKI-1 renal
  GI50: 219 nM and 511 nM and 206 nM
  TGI: 2750 nM and 2360 nM and 2320 nM
MDA-MB-435
  GI50: 1570 nM and 1780 nM and 1850 nM
  TGI: 3050 nM and 3900 nM and 4290 nM
UO-31 renal
  GI50: 171 nM and 101 nM and 177 nM
  TGI: 1930 nM and 1610 nM and 1870 nM
A498 renal
  GI50: 186 nM and 433 nM and 278 nM
  TGI: 1490 nM and 2030 nM and 2050 nM
SNB-19 CNS
  GI50: 2170 nM and 2390 nM and 2040 nM
  TGI: 8760 nM and > 6910 nM and 7070 nM
786-0 renal
  GI50: 1110 nM and 1060 nM and 1030 nM
  TGI: 2580 nM and 2900 nM and 2850 nM
SF-268 CNS
  GI50: 1250 nM and 951 nM and 1290 nM
  TGI: 4310 nM and > 4820 nM and 7740 nM
UACC-62 melanoma
  GI50: 1910 nM and 1540 nM and 1880 nM
  TGI: 4150 nM and 3800 nM and 4410 nM
UACC-257 melanoma
  GI50: 1760 nM and 1680 nM and 1950 nM
  TGI: 3640 nM and 3570 nM and 4050 nM
HOP-62 NSCLC
  GI50: 1080 nM and 1000 nM and 1520 nM
  TGI: 4170 nM and > 4900 nM and 5750 nM
SR leukemia
  GI50: 2060 nM and 2090 nM and 1920 nM
  TGI: 5490 nM and 5210 nM and 5390 nM
SK-MEL-5 melanoma
  GI50: 1610 nM and 1550 nM and 1570 nM
  TGI: 3010 nM and 2930 nM and 2940 nM
EKVX NSCLC
  GI50: 33 nM and 101 nM
  TGI: > 6550 nM and 15200 nM
OVCAR-8 ovarian
  GI50: 2060 nM and 2090 nM and 2430 nM
  TGI: 13800 nM and > 10000 nM and 13600 nM
TK-10 renal
  GI50: 109 nM and 30.2 nM and 47.2 nM
  TGI: 1760 nM and 1410 nM and 1450 nM
BT-549 breast
  GI50: 4680 nM and 3760 nM and 2390 nM
  TGI: 13700 nM and > 10000 nM and 7660 nM
RPMI-8226 leukemia
  GI50: 1980 nM and 1490 nM and 1930 nM
  TGI: 4950 nM and 4290 nM and 5970 nM
CCRF-CEM leukemia
  TGI: 7560 nM and 1240 nM and 10500 nM
SW-620 colon
  GI50: 1600 nM and 1460 nM and 1720 nM
  TGI: 3560 nM and 4060 nM and 5060 nM
HOP-92 NSCLC
  GI50: 247 nM and 195 nM and 1500 nM
  TGI: 1850 nM and 1800 nM and 6780 nM
OVCAR-4 ovarian
  GI50: 1580 nM and 1690 nM and 1750 nM
  TGI: 13400 nM and > 10000 nM and 14000 nM
MOLT-4 leukemia
  GI50: 2180 nM and 1860 nM and 2230 nM
  TGI: 7030 nM and 7850 nM and 8670 nM
LOX IMVI melanoma
  GI50: 953 nM and 1180 nM
  TGI: 2310 nM and 2490 nM and 2460 nM
HT29 colon
  GI50: 695 nM and 759 nM and 621 nM
  TGI: 4620 nM and 5860 nM and 4380 nM
SK-OV-3 ovarian
  GI50: 234 nM and 241 nM and 195 nM
  TGI: 902 nM and 1510 nM and 865 nM
RXF 393 renal
  GI50: 808 nM and 690 nM and 846 nM
  TGI: 2360 nM and 2410 nM and 2510 nM
PC-3 prostate
  GI50: 1530 nM and 1360 nM and 2120 nM
  TGI: 11600 nM and > 9560 nM and 8990 nM
SK-MEL-2 melanoma
  GI50: 2320 nM and 1920 nM and 2050 nM
  TGI: 4830 nM and 4010 nM and 4470 nM
K-562 leukemia
  GI50: 240 nM and 114 nM and 170 nM
  TGI: 2690 nM and > 7770 nM and 3140 nM
MCF7 breast
  GI50: 806 nM and 1190 nM and 1520 nM
  TGI: 6370 nM and > 6900 nM and 8050 nM
OVCAR-3 ovarian
  GI50: 1010 nM and 422 nM and 1790 nM
  TGI: 8180 nM and > 9270 nM and 14700 nM
HCT-116 colon
  GI50: 2210 nM and 1590 nM and 1820 nM
  TGI: 10900 nM and > 8580 nM and 9060 nM

Reference: PubChem BioAssay (NCI)
